The target of the experiment is BSA (Bos taurus, UniProt P02769). As to the kind of experiment: biochemical.
Chain of BSA (P02769 25-607): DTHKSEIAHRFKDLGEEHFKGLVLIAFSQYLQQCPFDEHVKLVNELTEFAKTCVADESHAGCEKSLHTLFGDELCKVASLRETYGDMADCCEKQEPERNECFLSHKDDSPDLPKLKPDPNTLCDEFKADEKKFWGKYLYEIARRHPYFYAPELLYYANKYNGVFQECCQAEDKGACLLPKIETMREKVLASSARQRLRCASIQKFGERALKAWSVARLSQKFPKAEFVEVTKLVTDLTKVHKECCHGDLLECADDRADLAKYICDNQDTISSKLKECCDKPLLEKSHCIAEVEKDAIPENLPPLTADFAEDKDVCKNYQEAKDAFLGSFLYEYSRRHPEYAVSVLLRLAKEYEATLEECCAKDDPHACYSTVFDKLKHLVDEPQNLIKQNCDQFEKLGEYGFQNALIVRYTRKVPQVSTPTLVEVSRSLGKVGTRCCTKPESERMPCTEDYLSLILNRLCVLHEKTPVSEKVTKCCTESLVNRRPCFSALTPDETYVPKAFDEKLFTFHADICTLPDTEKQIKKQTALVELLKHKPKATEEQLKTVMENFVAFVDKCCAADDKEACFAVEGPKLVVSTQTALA

A word on the Kd: it is the equilibrium constant for the complex coming apart. A higher Kd goes with a looser complex. In turn, `C=CC1=C(C)C2=Cc3c(C=C)c(C)c4[n]3[Fe]([Cl])[n]3c(c(C)c(CCC(=O)O)c3=CC3=NC(=C4)C(C)=C3CCC(=O)O)=CC1=N2` [hemin] gave a Kd of 1780 ± 20 nM.

These data come from publication doi:10.1101/2023.06.29.547052v1 (biorxiv, 2023).
